Laboratory results taken from paper PMC7026418, “The kinase polypharmacology landscape of clinical PARP inhibitors” (Scientific Reports, 2020).
Like-named read-outs stand apart in the source and are kept apart here.

Legend:
Assay in all cases: biochemical
Parameters in all cases: DiscoveRx KINOMEscan active site-directed competition binding; percent of control kinase bound to immobilised ligand
TNIK = TNIK (Homo sapiens, UniProt Q9UKE5)
MEK4 = molecular target: T1, MEK4 (Homo sapiens, UniProt P45985)
T1 construct: gene MAP2K4
T1 sequence (P45985 1-399): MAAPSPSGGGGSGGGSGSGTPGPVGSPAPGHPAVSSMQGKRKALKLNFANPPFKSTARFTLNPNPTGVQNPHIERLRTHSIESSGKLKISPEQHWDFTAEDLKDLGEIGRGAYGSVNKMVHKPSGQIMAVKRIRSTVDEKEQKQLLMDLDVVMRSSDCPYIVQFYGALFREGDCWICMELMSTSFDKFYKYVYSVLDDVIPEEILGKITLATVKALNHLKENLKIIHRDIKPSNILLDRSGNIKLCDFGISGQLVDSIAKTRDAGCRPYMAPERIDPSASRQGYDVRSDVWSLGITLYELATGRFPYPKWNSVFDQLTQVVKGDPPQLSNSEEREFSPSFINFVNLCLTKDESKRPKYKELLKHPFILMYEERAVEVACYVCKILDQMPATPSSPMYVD

[1] = molecular target: T2, RSK2(Kin.Dom.1-N-terminal) (Homo sapiens, UniProt P51812)
T2 construct: gene RPS6KA3; Kin.Dom.1-N-terminal
T2 sequence (P51812 whole entry): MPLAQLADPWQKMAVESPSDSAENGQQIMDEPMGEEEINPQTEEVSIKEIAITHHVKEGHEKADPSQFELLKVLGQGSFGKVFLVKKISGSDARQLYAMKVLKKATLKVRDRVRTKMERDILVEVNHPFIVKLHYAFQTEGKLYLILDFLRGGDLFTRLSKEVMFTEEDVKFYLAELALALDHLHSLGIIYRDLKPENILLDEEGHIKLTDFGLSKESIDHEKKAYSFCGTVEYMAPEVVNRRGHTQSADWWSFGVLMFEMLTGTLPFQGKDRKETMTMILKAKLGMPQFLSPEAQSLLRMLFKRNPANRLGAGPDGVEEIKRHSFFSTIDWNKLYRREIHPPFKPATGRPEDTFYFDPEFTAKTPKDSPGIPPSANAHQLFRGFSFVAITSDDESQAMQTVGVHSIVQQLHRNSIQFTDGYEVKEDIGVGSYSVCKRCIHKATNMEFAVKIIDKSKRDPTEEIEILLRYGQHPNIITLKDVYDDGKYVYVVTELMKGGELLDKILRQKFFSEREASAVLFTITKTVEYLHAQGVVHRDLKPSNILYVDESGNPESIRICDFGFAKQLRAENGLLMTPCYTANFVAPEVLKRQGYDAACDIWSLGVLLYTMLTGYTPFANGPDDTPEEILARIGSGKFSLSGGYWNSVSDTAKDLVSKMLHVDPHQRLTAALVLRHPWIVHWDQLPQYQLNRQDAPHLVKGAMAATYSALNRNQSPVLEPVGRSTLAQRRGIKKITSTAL

[2] = molecular target: T3, ABL1(Q252H)-nonphosphorylated (Homo sapiens, UniProt P00519, Q252H)
T3 construct: nonphosphorylated

PRKD1 = molecular target: T4, PRKD1 (Homo sapiens, UniProt Q15139)
T4 sequence (Q15139 1-912): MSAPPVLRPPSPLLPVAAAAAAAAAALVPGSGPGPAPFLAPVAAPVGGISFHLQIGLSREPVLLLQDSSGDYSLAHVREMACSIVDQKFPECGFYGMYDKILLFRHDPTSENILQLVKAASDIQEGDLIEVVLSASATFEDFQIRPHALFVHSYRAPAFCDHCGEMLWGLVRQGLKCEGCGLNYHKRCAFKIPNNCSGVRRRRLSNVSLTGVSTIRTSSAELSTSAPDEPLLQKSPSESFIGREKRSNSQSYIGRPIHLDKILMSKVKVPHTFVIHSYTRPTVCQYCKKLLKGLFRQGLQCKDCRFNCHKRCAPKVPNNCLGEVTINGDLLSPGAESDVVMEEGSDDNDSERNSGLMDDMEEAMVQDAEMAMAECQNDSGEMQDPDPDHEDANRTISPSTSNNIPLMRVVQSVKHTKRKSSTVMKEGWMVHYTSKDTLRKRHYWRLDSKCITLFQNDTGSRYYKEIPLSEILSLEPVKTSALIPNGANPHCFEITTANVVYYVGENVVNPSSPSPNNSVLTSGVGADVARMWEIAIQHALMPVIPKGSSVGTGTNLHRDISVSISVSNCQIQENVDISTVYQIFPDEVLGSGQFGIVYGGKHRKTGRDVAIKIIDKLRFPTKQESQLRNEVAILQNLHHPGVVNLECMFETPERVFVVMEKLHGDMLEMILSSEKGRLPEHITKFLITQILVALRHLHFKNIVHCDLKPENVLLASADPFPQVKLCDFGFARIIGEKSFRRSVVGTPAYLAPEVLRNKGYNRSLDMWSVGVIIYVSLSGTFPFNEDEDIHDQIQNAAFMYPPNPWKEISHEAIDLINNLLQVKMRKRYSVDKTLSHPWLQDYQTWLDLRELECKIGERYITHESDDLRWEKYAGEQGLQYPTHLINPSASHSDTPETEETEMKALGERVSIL

FLT3(ITD,D835V) = molecular target: T5, FLT3(ITD,D835V) (Homo sapiens, UniProt P36888, D835V/ITD)
T5 sequence (P36888 564-993 D835V): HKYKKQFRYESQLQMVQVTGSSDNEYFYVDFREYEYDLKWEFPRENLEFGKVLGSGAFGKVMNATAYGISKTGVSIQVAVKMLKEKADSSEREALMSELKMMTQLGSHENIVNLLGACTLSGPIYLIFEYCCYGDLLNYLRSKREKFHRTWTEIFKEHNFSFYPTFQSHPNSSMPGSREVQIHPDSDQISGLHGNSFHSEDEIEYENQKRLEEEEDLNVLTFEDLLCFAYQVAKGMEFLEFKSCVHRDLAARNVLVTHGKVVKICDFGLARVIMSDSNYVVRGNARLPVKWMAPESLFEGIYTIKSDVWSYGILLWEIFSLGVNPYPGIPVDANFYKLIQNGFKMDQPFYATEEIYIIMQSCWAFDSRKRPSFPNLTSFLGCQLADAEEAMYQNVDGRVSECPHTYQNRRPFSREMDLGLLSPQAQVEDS

MAPKAPK2 = MAPKAPK2 (Homo sapiens, UniProt P49137)
Sequence of MAPKAPK2 (P49137 whole entry): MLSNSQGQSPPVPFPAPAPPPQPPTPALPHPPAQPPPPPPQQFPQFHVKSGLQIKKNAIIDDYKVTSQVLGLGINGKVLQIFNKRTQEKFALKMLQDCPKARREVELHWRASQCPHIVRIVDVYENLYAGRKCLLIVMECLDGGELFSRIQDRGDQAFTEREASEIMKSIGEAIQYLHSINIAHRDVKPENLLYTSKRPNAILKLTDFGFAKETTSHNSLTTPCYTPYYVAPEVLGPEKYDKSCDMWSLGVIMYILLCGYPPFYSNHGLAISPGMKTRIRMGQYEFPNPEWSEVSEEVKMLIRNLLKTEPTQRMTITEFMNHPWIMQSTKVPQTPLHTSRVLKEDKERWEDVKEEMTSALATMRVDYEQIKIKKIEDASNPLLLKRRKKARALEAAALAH

PLK2 = PLK2 (Homo sapiens, UniProt Q9NYY3)
Sequence of PLK2 (Q9NYY3 whole entry): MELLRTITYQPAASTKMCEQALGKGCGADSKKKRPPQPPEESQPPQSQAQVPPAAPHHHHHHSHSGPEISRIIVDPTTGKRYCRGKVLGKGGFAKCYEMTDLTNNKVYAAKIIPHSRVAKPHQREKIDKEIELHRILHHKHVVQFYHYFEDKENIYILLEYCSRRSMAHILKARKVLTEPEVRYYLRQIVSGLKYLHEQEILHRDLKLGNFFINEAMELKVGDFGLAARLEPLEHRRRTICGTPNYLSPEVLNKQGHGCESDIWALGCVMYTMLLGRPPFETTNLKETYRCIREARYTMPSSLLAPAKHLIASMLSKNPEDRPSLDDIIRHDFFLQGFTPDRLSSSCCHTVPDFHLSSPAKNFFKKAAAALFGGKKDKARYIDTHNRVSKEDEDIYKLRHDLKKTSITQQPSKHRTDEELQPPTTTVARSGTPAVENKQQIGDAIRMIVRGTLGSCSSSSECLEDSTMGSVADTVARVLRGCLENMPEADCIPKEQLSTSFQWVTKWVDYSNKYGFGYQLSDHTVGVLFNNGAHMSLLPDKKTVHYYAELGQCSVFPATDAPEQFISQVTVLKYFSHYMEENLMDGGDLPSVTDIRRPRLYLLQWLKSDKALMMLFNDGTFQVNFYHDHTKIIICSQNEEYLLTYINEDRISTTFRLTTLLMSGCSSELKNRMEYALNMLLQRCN

[3] = read-out: Niraparib (MK-4827) / %Ctrl @ 10000nM
[4] = read-out: Olaparib / %Ctrl @ 10000nM
[5] = read-out: Rucaparib / %Ctrl @ 10000nM, binding competition, % of control
[6] = read-out: Talazoparib (BMN 673) / %Ctrl @ 10000nM

Sequence of TNIK (Q9UKE5 whole entry): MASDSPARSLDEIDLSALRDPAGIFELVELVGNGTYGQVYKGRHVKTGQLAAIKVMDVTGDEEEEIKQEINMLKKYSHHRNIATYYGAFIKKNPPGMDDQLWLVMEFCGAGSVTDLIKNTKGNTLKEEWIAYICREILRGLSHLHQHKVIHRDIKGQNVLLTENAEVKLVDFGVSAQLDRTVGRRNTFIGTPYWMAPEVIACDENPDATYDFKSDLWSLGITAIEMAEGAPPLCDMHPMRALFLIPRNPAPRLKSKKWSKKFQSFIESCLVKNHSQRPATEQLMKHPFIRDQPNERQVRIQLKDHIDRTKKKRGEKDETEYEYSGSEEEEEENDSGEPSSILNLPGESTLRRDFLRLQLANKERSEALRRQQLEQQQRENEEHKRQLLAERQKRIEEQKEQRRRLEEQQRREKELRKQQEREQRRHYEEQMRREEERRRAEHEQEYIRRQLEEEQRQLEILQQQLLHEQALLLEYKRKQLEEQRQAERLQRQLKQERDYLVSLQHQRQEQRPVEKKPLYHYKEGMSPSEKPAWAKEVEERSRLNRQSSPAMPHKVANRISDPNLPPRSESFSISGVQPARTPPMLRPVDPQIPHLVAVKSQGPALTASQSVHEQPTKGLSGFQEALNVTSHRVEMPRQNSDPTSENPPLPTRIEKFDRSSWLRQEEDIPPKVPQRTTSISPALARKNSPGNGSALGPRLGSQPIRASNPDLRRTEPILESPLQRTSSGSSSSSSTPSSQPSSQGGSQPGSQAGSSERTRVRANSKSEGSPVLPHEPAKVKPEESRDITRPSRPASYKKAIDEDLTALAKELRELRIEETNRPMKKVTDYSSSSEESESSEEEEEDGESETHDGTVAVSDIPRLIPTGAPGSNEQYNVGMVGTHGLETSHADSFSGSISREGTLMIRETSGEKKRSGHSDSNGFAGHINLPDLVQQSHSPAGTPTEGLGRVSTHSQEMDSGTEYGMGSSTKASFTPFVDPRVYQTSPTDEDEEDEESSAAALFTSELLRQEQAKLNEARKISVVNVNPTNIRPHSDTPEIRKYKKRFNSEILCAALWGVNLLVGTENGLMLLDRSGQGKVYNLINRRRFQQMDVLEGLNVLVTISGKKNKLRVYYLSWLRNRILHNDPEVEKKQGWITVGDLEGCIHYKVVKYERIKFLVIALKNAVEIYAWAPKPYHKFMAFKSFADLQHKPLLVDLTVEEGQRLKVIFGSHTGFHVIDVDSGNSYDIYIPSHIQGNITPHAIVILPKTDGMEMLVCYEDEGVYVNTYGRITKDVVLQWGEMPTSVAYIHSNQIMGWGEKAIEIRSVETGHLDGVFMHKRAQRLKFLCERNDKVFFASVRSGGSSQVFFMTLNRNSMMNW

NC(=O)c1cccc2cn(-c3ccc([C@@H]4CCCNC4)cc3)nc12 [Niraparib]
percent of control binding at 10 µM (TNIK; [3]): 86% | percent of control binding at 10 µM (MEK4; [3]): 82% | percent of control binding at 10 µM [1, 3]: 94% | percent of control binding at 10 µM [2, 3]: 58% | percent of control binding at 10 µM (PRKD1; [3]): 86% | percent of control binding at 10 µM (FLT3(ITD,D835V); [3]): 36% | percent of control binding at 10 µM (MAPKAPK2; [3]): 80% | percent of control binding at 10 µM (PLK2; [3]): 92%

O=C(c1cc(Cc2n[nH]c(=O)c3ccccc23)ccc1F)N1CCN(C(=O)C2CC2)CC1 [Olaparib]
percent of control binding at 10 µM (TNIK; [4]): 100% | percent of control binding at 10 µM (MEK4; [4]): 80% | percent of control binding at 10 µM [1, 4]: 94% | percent of control binding at 10 µM [2, 4]: 98% | percent of control binding at 10 µM (PRKD1; [4]): 89% | percent of control binding at 10 µM (FLT3(ITD,D835V); [4]): 100% | percent of control binding at 10 µM (MAPKAPK2; [4]): 84% | percent of control binding at 10 µM (PLK2; [4]): 95%

CNCc1ccc(-c2[nH]c3cc(F)cc4c3c2CCNC4=O)cc1 [Rucaparib]
percent of control binding at 10 µM (TNIK; [5]): 22% | percent of control binding at 10 µM (MEK4; [5]): 69% | percent of control binding at 10 µM [1, 5]: 52% | percent of control binding at 10 µM [2, 5]: 62% | percent of control binding at 10 µM (PRKD1; [5]): 67% | Rucaparib / %Ctrl @ 10000nM (FLT3(ITD,D835V); binding competition, % of control): 8.1% | percent of control binding at 10 µM (MAPKAPK2; [5]): 100% | percent of control binding at 10 µM (PLK2; [5]): 76%

Cn1ncnc1[C@H]1c2n[nH]c(=O)c3cc(F)cc(c23)N[C@@H]1c1ccc(F)cc1 [Talazoparib]
percent of control binding at 10 µM (TNIK; [6]): 98% | percent of control binding at 10 µM (MEK4; [6]): 99% | percent of control binding at 10 µM [1, 6]: 88% | percent of control binding at 10 µM [2, 6]: 73% | percent of control binding at 10 µM (PRKD1; [6]): 100% | percent of control binding at 10 µM (FLT3(ITD,D835V); [6]): 100% | percent of control binding at 10 µM (MAPKAPK2; [6]): 100% | percent of control binding at 10 µM (PLK2; [6]): 100%
